Measurements: US6500794B1, “Granulated bleaching activator” (Kao Corporation, priority 1999, dated 2002)

Assay: Solubility of component (a) in aqueous nonionic surfactant solution, requirements (1) and (2)
Assay type: physicochemical
Details: 10° C., stirred five minutes; for solubility of the component (a), Condition (2): 0.1 g component (a) (A-1) in 0.25 g nonionic surfactant / 500 ml water; for solubility of the component (a), Condition (1): 0.1 g component (a) (A-1) in 10 g nonionic surfactant / 500 ml water
Protocol: (1) when 0.1 g of the component (a) is added to an aqueous solution produced by dissolving 10 g of the component (b1) in 500 ml of water at 10° C. and the mixture was stirred for five minutes, the solubility of the component (a) just after the stirring is 50% by weight or more; and
Herein, the solubility was measured using the following method.
Method for Measuring Solubility
1 l glass beaker (cylinder type; inside diameter: 105 mm, height: 15 cm) was charged with 500 ml of an aqueous solution in which the component (b1) was dissolved in an amount corresponding to the requirements (1) and (2) and the solution was stirred (using a magnetic stirrer; a cylindrical stirrer piece with a diameter of 15 mm and a length of 52 mm, 200 rpm) in a thermostat kept at 10° C. At the stage in which the temperature of the solution reached 10° C., the powdery component (a) having a bulk density of […] and containing 10% by weight or less of particles with a grain size of 125 μm was added thereto in a prescribed amount and then the solution was stirred for 5 minutes. Thereafter, the solution was filtered through a membrane filter (Cellulose Nitrate A045A047A, 0.47 μm, manufactured by […]) and the content of the component (a) in the filtrate was determined by using high performance liquid chromatography to determine the solubility by the following formula. [formula]
Granulated Bleaching activator having the compositions shown in Table 2 were prepared by using the bleaching activator A-1 and nonionic surfactants B-1 and B-2 described below according to the method described below. Also, granulated bleaching activators were prepared in the same manner as above by using B′-1, B′-2 and B′-3 as comparative nonionic surfactants. Each solubility of these nonionic surfactants in the conditions (1) and (2) are shown below.

Row | Substance | solubility of the component (a), Condition (2) [%] | solubility of the component (a), Condition (1) [%]
1 | C12H25O—(EO)5—(PO)2—(EO)5—H [Example B-1] | 7 | 79
2 | C12H25O—(EO)7—H [B′-1] | 32 | 82
3 | C12H25O—(EO)10—(PO)4—H [Example B-2] | 0.5 | 81
4 | C12H25O—(EO)15—H [B′-3] | 3 | 46
